What was measured:
Type in all cases: functional
[1] = system: Echinochloa crus-galli; experiment: Herbicidal activity against Echinochloa crus-galli (barnyard grass) plants assessed as inhibition of seedling growth at 1000 ug/ml after 65 hr by barnyard cup test; conditions: read-out: GI
[2] = system: Echinochloa crus-galli; experiment: Herbicidal activity against Echinochloa crus-galli (barnyard grass) plants assessed as inhibition of seedling growth at 100 ug/ml after 65 hr by barnyard cup test; conditions: read-out: GI
[3] = system: Brassica rapa subsp. oleifera; experiment: Herbicidal activity against Brassica rapa subsp. oleifera assessed as inhibition of root growth at 1000 ug/ml after 65 hr by rape cup test; conditions: read-out: GI
[4] = system: Brassica rapa subsp. oleifera; experiment: Herbicidal activity against Brassica rapa subsp. oleifera assessed as inhibition of root growth at 100 ug/ml after 65 hr by rape cup test; conditions: read-out: GI
[5] = system: Brassica rapa subsp. oleifera; experiment: Herbicidal activity against Brassica rapa subsp. oleifera assessed as inhibition of root growth at 10 ug/ml after 65 hr by rape cup test; conditions: read-out: GI
[6] = system: Paraixeris denticulata; experiment: Herbicidal activity against Paraixeris denticulata assessed as germination rate at 1000 ug/ml measured on fourth day post dose (reference value: 100%)
[7] = system: Paraixeris denticulata; experiment: Herbicidal activity against Paraixeris denticulata assessed as germination rate at 1000 ug/ml measured on third day post dose (reference value: 97.4 +/- 0.6%)
[8] = system: Paraixeris denticulata; experiment: Herbicidal activity against Paraixeris denticulata assessed as germination rate at 1000 ug/ml measured on second day post dose (reference value: 76.7 +/- 0.3%)
[9] = system: Paraixeris denticulata; experiment: Herbicidal activity against Paraixeris denticulata assessed as germination rate at 1000 ug/ml measured on first day post dose (reference value: 30.8 +/- 1.2%)
[10] = system: Digitaria sanguinalis; experiment: Herbicidal activity against Digitaria sanguinalis (hairy crabgrass) assessed as germination rate at 1000 ug/ml measured on third day post dose (reference value: 100%)
[11] = system: Digitaria sanguinalis; experiment: Herbicidal activity against Digitaria sanguinalis (hairy crabgrass) assessed as germination rate at 1000 ug/ml measured on second day post dose (reference value: 100%)
[12] = system: Digitaria sanguinalis; experiment: Herbicidal activity against Digitaria sanguinalis (hairy crabgrass) assessed as germination rate at 1000 ug/ml measured on first day post dose (reference value: 0%)
[13] = system: Echinochloa crus-galli; experiment: Herbicidal activity against Echinochloa crus-galli (barnyard grass) plants assessed as germination rate at 1000 ug/ml measured on second day post dose (reference value: 100%)
[14] = system: Echinochloa crus-galli; experiment: Herbicidal activity against Echinochloa crus-galli (barnyard grass) plants assessed as germination rate at 1000 ug/ml measured on first day post dose (reference value: 49.1 +/- 1.6%)

## COc1cc(OC)c2c(c1)O/C(=C\c1cccc(F)c1)C2=O
[1]
  inhibition of growth at 1000 µg/mL: 43.8%
[2]
  inhibition of growth at 100 µg/mL: 14.4%
[3]
  inhibition of growth at 1000 µg/mL: 82.1%
[4]
  inhibition of growth at 100 µg/mL: 57.8%

## COc1cc(/C=C2\Oc3cc(O)cc(O)c3C2=O)cc(OC)c1OC
[1]
  inhibition of growth at 1000 µg/mL: 68.7%
[2]
  inhibition of growth at 100 µg/mL: 5.2%
[3]
  inhibition of growth at 1000 µg/mL: 83.8%
[4]
  inhibition of growth at 100 µg/mL: 0%

## COc1cc(OC)c2c(c1)O/C(=C\c1ccc(F)cc1)C2=O
[1]
  inhibition of growth at 1000 µg/mL: 5%
[2]
  inhibition of growth at 100 µg/mL: 0%
[3]
  inhibition of growth at 1000 µg/mL: 74.2%
[4]
  inhibition of growth at 100 µg/mL: 64.2%
[5]
  inhibition of growth at 10 µg/mL: 50.6%

## Cc1ccc(/C=C2\Oc3cc(O)cc(O)c3C2=O)cc1
[1]
  inhibition of growth at 1000 µg/mL: 44.2%
[2]
  inhibition of growth at 100 µg/mL: 5%
[3]
  inhibition of growth at 1000 µg/mL: 78.2%
[4]
  inhibition of growth at 100 µg/mL: 44.3%

## O=C1/C(=C/c2ccc(F)cc2)Oc2cc(O)cc(O)c21
[1]
  inhibition of growth at 1000 µg/mL: 20%
[2]
  inhibition of growth at 100 µg/mL: 5%
[3]
  inhibition of growth at 1000 µg/mL: 42.3%
[4]
  inhibition of growth at 100 µg/mL: 39.1%

## CC(C)(C)c1ccc(/C=C2\Oc3cc(O)cc(O)c3C2=O)cc1
[1]
  inhibition of growth at 1000 µg/mL: 39.6%
[2]
  inhibition of growth at 100 µg/mL: 1.5%
[3]
  inhibition of growth at 1000 µg/mL: 87.5%
[4]
  inhibition of growth at 100 µg/mL: 9.5%

## COc1cc(/C=C2\Oc3cc(O)cc(O)c3C2=O)ccc1O
[1]
  inhibition of growth at 1000 µg/mL: 23.3%
[2]
  inhibition of growth at 100 µg/mL: 9.5%
[3]
  inhibition of growth at 1000 µg/mL: 98.4%
[4]
  inhibition of growth at 100 µg/mL: 63.3%
[6]
  Activity: 100%
[7]
  Activity: 94.9%
[8]
  Activity: 82.4%
[9]
  Activity: 14.3%
[10]
  Activity: 100%
[11]
  Activity: 35.1%
[12]
  Activity: 0%
[13]
  Activity: 100%
[14]
  Activity: 16.9%

## COc1ccc(/C=C2\Oc3cc(O)cc(O)c3C2=O)cc1
[1]
  inhibition of growth at 1000 µg/mL: 28.8%
[2]
  inhibition of growth at 100 µg/mL: 10%
[3]
  inhibition of growth at 1000 µg/mL: 90.8%
[4]
  inhibition of growth at 100 µg/mL: 63.7%

## O=C1/C(=C/c2ccc(O)cc2)Oc2cc(O)cc(O)c21
[1]
  inhibition of growth at 1000 µg/mL: 57.9%
[2]
  inhibition of growth at 100 µg/mL: 15%
[3]
  inhibition of growth at 1000 µg/mL: 72.1%
[4]
  inhibition of growth at 100 µg/mL: 55.2%

## COc1cc(/C=C2\Oc3cc(O)cc(O)c3C2=O)ccc1OCc1ccccc1
[1]
  inhibition of growth at 1000 µg/mL: 38.6%
[2]
  inhibition of growth at 100 µg/mL: 9.7%
[3]
  inhibition of growth at 1000 µg/mL: 87.9%
[4]
  inhibition of growth at 100 µg/mL: 46.8%

## COc1cc(/C=C2\Oc3cc(O)cc(O)c3C2=O)cc(OC)c1OCc1ccccc1
[1]
  inhibition of growth at 1000 µg/mL: 36.9%
[2]
  inhibition of growth at 100 µg/mL: 15.2%
[3]
  inhibition of growth at 1000 µg/mL: 75.9%
[4]
  inhibition of growth at 100 µg/mL: 48.8%

## COc1cc(OC)c2c(c1)O/C(=C\c1cccc(OC)c1OC)C2=O
[1]
  inhibition of growth at 1000 µg/mL: 42.6%
[2]
  inhibition of growth at 100 µg/mL: 25.5%
[3]
  inhibition of growth at 1000 µg/mL: 51.4%
[4]
  inhibition of growth at 100 µg/mL: 34.7%

## COc1cc(OC)c2c(c1)O/C(=C\c1ccco1)C2=O
[1]
  inhibition of growth at 1000 µg/mL: 42.5%
[2]
  inhibition of growth at 100 µg/mL: 7.8%
[3]
  inhibition of growth at 1000 µg/mL: 94.9%
[4]
  inhibition of growth at 100 µg/mL: 75.9%
[5]
  inhibition of growth at 10 µg/mL: 31.6%
[10]
  Activity: 100%
[11]
  Activity: 35%
[12]
  Activity: 0%
[13]
  Activity: 100%
[14]
  Activity: 23.7%

## COc1cc(OC)c2c(c1)O/C(=C\c1ccc(OCc3ccccc3)c(OC)c1)C2=O
[1]
  inhibition of growth at 1000 µg/mL: 44.4%
[2]
  inhibition of growth at 100 µg/mL: 8.4%
[3]
  inhibition of growth at 1000 µg/mL: 68%
[4]
  inhibition of growth at 100 µg/mL: 54%

## CCOc1cc(OCC)c2c(c1)O/C(=C\c1ccccc1)C2=O
[1]
  inhibition of growth at 1000 µg/mL: 27.6%
[2]
  inhibition of growth at 100 µg/mL: 8%
[3]
  inhibition of growth at 1000 µg/mL: 71.3%
[4]
  inhibition of growth at 100 µg/mL: 37.5%
[13]
  Activity: 100%
[14]
  Activity: 17.7%

## CCOc1cc(OCC)c2c(c1)O/C(=C\c1ccc(OC)cc1)C2=O
[1]
  inhibition of growth at 1000 µg/mL: 35%
[2]
  inhibition of growth at 100 µg/mL: 10%
[3]
  inhibition of growth at 1000 µg/mL: 17.7%
[4]
  inhibition of growth at 100 µg/mL: 0%

## COc1cc(/C=C2\Oc3cc(OC(=O)c4ccccc4)cc(OC(=O)c4ccccc4)c3C2=O)cc(OC)c1OCc1ccccc1
[1]
  inhibition of growth at 1000 µg/mL: 19.6%
[2]
  inhibition of growth at 100 µg/mL: 5%
[3]
  inhibition of growth at 1000 µg/mL: 77.1%
[4]
  inhibition of growth at 100 µg/mL: 47.6%

## COc1cc2c(c(OC)c1C)C(=O)/C(=C/c1ccccc1)O2
[1]
  inhibition of growth at 1000 µg/mL: 33.5%
[2]
  inhibition of growth at 100 µg/mL: 15%
[3]
  inhibition of growth at 1000 µg/mL: 82.6%
[4]
  inhibition of growth at 100 µg/mL: 30.5%
[10]
  Activity: 100%
[11]
  Activity: 68.6%
[12]
  Activity: 0%
[13]
  Activity: 100%
[14]
  Activity: 19.5%

## COc1ccc(/C=C2\Oc3cc(OC)c(C)c(OC)c3C2=O)cc1OC
[1]
  inhibition of growth at 1000 µg/mL: 51.8%
[2]
  inhibition of growth at 100 µg/mL: 16.8%
[3]
  inhibition of growth at 1000 µg/mL: 83.8%
[4]
  inhibition of growth at 100 µg/mL: 40.1%

## COc1cc2c(c(OC)c1C)C(=O)/C(=C/c1ccc(F)cc1)O2
[1]
  inhibition of growth at 1000 µg/mL: 15%
[2]
  inhibition of growth at 100 µg/mL: 0%
[3]
  inhibition of growth at 1000 µg/mL: 59%
[4]
  inhibition of growth at 100 µg/mL: 46.6%

## COc1cc2c(c(OC)c1C)C(=O)/C(=C/c1ccc(OCc3ccccc3)cc1)O2
[1]
  inhibition of growth at 1000 µg/mL: 40.8%
[2]
  inhibition of growth at 100 µg/mL: 2.3%
[3]
  inhibition of growth at 1000 µg/mL: 91.9%
[4]
  inhibition of growth at 100 µg/mL: 14.2%

## CN(C)c1ccc(/C=C2\Oc3cc(O)cc(O)c3C2=O)cc1
[1]
  inhibition of growth at 1000 µg/mL: 46.6%
[2]
  inhibition of growth at 100 µg/mL: 3%
[3]
  inhibition of growth at 1000 µg/mL: 78.9%
[4]
  inhibition of growth at 100 µg/mL: 54.2%
[11]
  Activity: 27.8%
[12]
  Activity: 0%
[13]
  Activity: 100%
[14]
  Activity: 16.9%

## COc1ccc(/C=C2\Oc3cc(O)cc(O)c3C2=O)cc1OC
[1]
  inhibition of growth at 1000 µg/mL: 48.1%
[2]
  inhibition of growth at 100 µg/mL: 12.3%
[3]
  inhibition of growth at 1000 µg/mL: 82.6%
[4]
  inhibition of growth at 100 µg/mL: 48%

## COc1cc(/C=C2\Oc3cc(O)cc(O)c3C2=O)cc(OC)c1O
[1]
  inhibition of growth at 1000 µg/mL: 10%
[2]
  inhibition of growth at 100 µg/mL: 5%
[3]
  inhibition of growth at 1000 µg/mL: 0%
[4]
  inhibition of growth at 100 µg/mL: 0%

## O=C1/C(=C/c2ccccc2)Oc2cc(O)cc(O)c21
[1]
  inhibition of growth at 1000 µg/mL: 49.3%
[2]
  inhibition of growth at 100 µg/mL: 19.9%
[3]
  inhibition of growth at 1000 µg/mL: 96.5%
[4]
  inhibition of growth at 100 µg/mL: 50.1%
[10]
  Activity: 100%
[13]
  Activity: 100%
[14]
  Activity: 15.3%

## O=C1/C(=C/c2ccc3c(c2)OCO3)Oc2cc(O)cc(O)c21
[1]
  inhibition of growth at 1000 µg/mL: 10%
[2]
  inhibition of growth at 100 µg/mL: 5%
[3]
  inhibition of growth at 1000 µg/mL: 8.7%
[4]
  inhibition of growth at 100 µg/mL: 0%

## COc1ccc(/C=C2\Oc3cc(OC)cc(OC)c3C2=O)cc1 [4,4',6-TRIMETHOXY-AURONE]
[1]
  inhibition of growth at 1000 µg/mL: 62.8%
[2]
  inhibition of growth at 100 µg/mL: 18.6%
[3]
  inhibition of growth at 1000 µg/mL: 87.8%
[4]
  inhibition of growth at 100 µg/mL: 72.3%
[5]
  inhibition of growth at 10 µg/mL: 63.2%

## COc1cc(OC)c2c(c1)O/C(=C\c1ccc(OC)c(OC)c1)C2=O [4,6,3',4'-TETRAMETHOXYAURONE]
[1]
  inhibition of growth at 1000 µg/mL: 61.3%
[2]
  inhibition of growth at 100 µg/mL: 0.9%
[3]
  inhibition of growth at 1000 µg/mL: 77.9%
[4]
  inhibition of growth at 100 µg/mL: 5.3%
[6]
  Activity: 100%
[7]
  Activity: 100%
[8]
  Activity: 69.6%
[9]
  Activity: 20%
[10]
  Activity: 100%
[11]
  Activity: 41.4%
[12]
  Activity: 0%
[13]
  Activity: 100%
[14]
  Activity: 13%

Reference: ChEMBL document CHEMBL3046252, “Synthesis and herbicidal potential of substituted aurones” (2012)
